Experimental data from ChEMBL document CHEMBL1201862, “PubChem BioAssay data set” (2004).
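Values below derive from 48-hour exposures of cells grown in 96-well plates, with endpoints linearly interpolated between the two concentrations bracketing the appropriate inhibition level. The concentration for 50% growth inhibition is given as GI50.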 Activity calls are given as the source filed them. Rule as the data show it: active = GI50 up to about 1.1 µM and inactive = higher.

Columns and labels:
Assay in all cases: NCI anticancer screen, dose series, 48 h
[1] = test system: DU-145
[2] = test system: MOLT-4
[3] = test system: T47D
[4] = test system: SNB-75
[5] = test system: SF-539
[6] = test system: A498
[7] = test system: MDA-N
[8] = test system: SK-MEL-5
[9] = test system: HOP-62
[10] = test system: SR
[11] = test system: NCI/ADR-RES
[12] = test system: MDA-MB-231
[13] = test system: CAKI-1
[14] = test system: RPMI-8226
[15] = test system: HL-60
[16] = test system: NCI-H226
[17] = test system: BT-549
[18] = test system: HT-29
[19] = test system: RXF 393
[20] = test system: SK-OV-3
[21] = test system: Hs-578T
[22] = test system: TK-10
[23] = test system: ACHN
[24] = test system: SNB-19
[25] = test system: SN12C
[26] = test system: CCRF-CEM
[27] = test system: SK-MEL-28
[28] = test system: HCT-15
[29] = test system: SF-295
[30] = test system: OVCAR-8
[31] = test system: OVCAR-5
[32] = test system: NCI-H23
[33] = test system: MCF7
[34] = test system: NCI-H460
[35] = test system: OVCAR-4
[36] = test system: UO-31
[37] = test system: SK-MEL-2
[38] = test system: COLO 205
[39] = test system: LOX IMVI
[40] = test system: EKVX
[41] = test system: HOP-92
[42] = test system: UACC-62
[43] = test system: OVCAR-3
[44] = test system: HCT-116
[45] = test system: A549
[46] = test system: M14
[47] = test system: PC-3
[48] = test system: UACC-257
[49] = test system: KM12
[50] = test system: SF-268
[51] = test system: SW-620
[52] = test system: IGROV-1
[53] = test system: NCI-H522
[54] = test system: Malme-3M
[55] = test system: 786-0
[56] = test system: U-251
[57] = test system: MDA-MB-435
[58] = test system: HCC 2998
[59] = test system: K562

## C[N+](C)(C)CC(=O)N/N=C(/CC1OC(=O)c2ccccc21)c1ccccc1O (configuration not stated)
[1]
  GI50: 34.7 µM (inactive)
[2]
  GI50: 16.2 µM (inactive)
[3]
  GI50: 25.6 µM (inactive)
[4]
  GI50: 39.1 µM (inactive)
[5]
  GI50: 20.3 µM (inactive)
[6]
  GI50: 38.5 µM (inactive)
[7]
  GI50: 54.1 µM (inactive)
[8]
  GI50: 46.6 µM (inactive)
[9]
  GI50: 35.4 µM (inactive)
[10]
  GI50: 14.3 µM (inactive)
[11]
  GI50: 19.3 µM (inactive)
[12]
  GI50: 95.9 µM (inactive)
[13]
  GI50: 34.1 µM (inactive)
[14]
  GI50: 5.94 µM (inactive)
[15]
  GI50: 16.2 µM (inactive)
[16]
  GI50: 20 µM (inactive)
[17]
  GI50: 25.1 µM (inactive)
[18]
  GI50: 44.1 µM (inactive)
[19]
  GI50: 28 µM (inactive)
[20]
  GI50: 35.2 µM (inactive)
[21]
  GI50: 60.3 µM (inactive)
[22]
  GI50: 31.9 µM (inactive)
[23]
  GI50: 20.3 µM (inactive)
[24]
  GI50: 46.8 µM (inactive)
[25]
  GI50: 49 µM (inactive)
[26]
  GI50: 19 µM (inactive)
[27]
  GI50: 29.2 µM (inactive)
[28]
  GI50: 36.2 µM
[29]
  GI50: 42.4 µM (inactive)
[30]
  GI50: 29.2 µM (inactive)
[31]
  GI50: > 100 µM (inactive)
[32]
  GI50: 26.5 µM (inactive)
[33]
  GI50: 54.8 µM (inactive)
[34]
  GI50: 24.4 µM (inactive)
[35]
  GI50: 45.1 µM (inactive)
[36]
  GI50: 24.2 µM (inactive)
[37]
  GI50: 72.8 µM (inactive)
[38]
  GI50: 68.2 µM (inactive)
[39]
  GI50: 17.4 µM (inactive)
[40]
  GI50: 62.4 µM (inactive)
[41]
  GI50: 29.7 µM (inactive)
[42]
  GI50: 22.9 µM (inactive)
[43]
  GI50: 62.4 µM (inactive)
[44]
  GI50: 28.4 µM (inactive)
[45]
  GI50: 76.6 µM (inactive)
[46]
  GI50: > 100 µM (inactive)
[47]
  GI50: 60.5 µM (inactive)
[48]
  GI50: 24 µM (inactive)
[49]
  GI50: 26.7 µM (inactive)
[50]
  GI50: 81.8 µM (inactive)
[51]
  GI50: 33.4 µM (inactive)
[52]
  GI50: 37.8 µM (inactive)
[53]
  GI50: 46.5 µM (inactive)
[54]
  GI50: 59.8 µM (inactive)
[55]
  GI50: 25.8 µM (inactive)
[56]
  GI50: 22 µM (inactive)
[57]
  GI50: 30.6 µM (inactive)
[58]
  GI50: 22.4 µM (inactive)

## O=C(CCN1CC2CCC(CC2)C1)c1cccs1
[1]
  GI50: 17.6 µM (inactive)
[2]
  GI50: 3.32 µM (inactive)
[3]
  GI50: 6.92 µM (inactive)
[4]
  GI50: 19.2 µM (inactive)
[5]
  GI50: 20.9 µM (inactive)
[6]
  GI50: > 87.7 µM (inactive)
[7]
  GI50: 17.1 µM (inactive)
[8]
  GI50: 40.1 µM (inactive)
[9]
  GI50: 19.3 µM (inactive)
[10]
  GI50: 4.49 µM (inactive)
[11]
  GI50: 24.6 µM (inactive)
[12]
  GI50: 18.2 µM (inactive)
[13]
  GI50: 18.7 µM (inactive)
[14]
  GI50: 1.85 µM (inactive)
[15]
  GI50: 20.7 µM (inactive)
[16]
  GI50: > 100 µM (inactive)
[17]
  GI50: 21.4 µM (inactive)
[18]
  GI50: 24.5 µM (inactive)
[19]
  GI50: 19 µM (inactive)
[20]
  GI50: > 37.8 µM (inactive)
[21]
  GI50: 27.3 µM (inactive)
[22]
  GI50: 8.73 µM (inactive)
[23]
  GI50: 18.7 µM (inactive)
[24]
  GI50: > 53 µM (inactive)
[25]
  GI50: 18.1 µM (inactive)
[26]
  GI50: 1.94 µM (inactive)
[27]
  GI50: 17.1 µM (inactive)
[28]
  GI50: 20.4 µM
[29]
  GI50: > 100 µM (inactive)
[30]
  GI50: 18.7 µM (inactive)
[31]
  GI50: 16.4 µM (inactive)
[32]
  GI50: 18.4 µM (inactive)
[33]
  GI50: 8.59 µM (inactive)
[34]
  GI50: 18.7 µM (inactive)
[35]
  GI50: 30.8 µM (inactive)
[36]
  GI50: 8.77 µM (inactive)
[37]
  GI50: 17.3 µM (inactive)
[38]
  GI50: 18.5 µM (inactive)
[39]
  GI50: 10.7 µM (inactive)
[40]
  GI50: 19.1 µM (inactive)
[41]
  GI50: 6.01 µM (inactive)
[42]
  GI50: 17.7 µM (inactive)
[43]
  GI50: 21.1 µM (inactive)
[44]
  GI50: 19.1 µM (inactive)
[45]
  GI50: 23.9 µM (inactive)
[46]
  GI50: 16.4 µM (inactive)
[47]
  GI50: 16.7 µM (inactive)
[48]
  GI50: 16.1 µM (inactive)
[49]
  GI50: 19.9 µM (inactive)
[50]
  GI50: 21.2 µM (inactive)
[51]
  GI50: 2.79 µM (inactive)
[52]
  GI50: 8.73 µM (inactive)
[53]
  GI50: 17.4 µM (inactive)
[54]
  GI50: 21.1 µM (inactive)
[55]
  GI50: 5.35 µM (inactive)
[56]
  GI50: 18.3 µM (inactive)
[59]
  GI50: 17.5 µM (inactive)
[57]
  GI50: 20.8 µM (inactive)
[58]
  GI50: 15.6 µM (inactive)
